# Data published in patent US20090004211A1, “METHOD FOR EFFECTING LOCALIZED, NON-SYSTEMIC AND SYSTEMIC, IMMUNOGENIC TREATMENT OF CANCER USING ERP57 TRANSLOCATION” (priority 2006, published 2009).
# “Also recorded” adds a separate entry of the source. Non-standard residues stand in square brackets, D forms with d. Residues, ends and D or L forms follow the SMILES beside them. *: point of attachment. Nle = CCCC[C@H](N)C(=O)O; Cbz = O=C(OCc1ccccc1)*; CH2F = FC*
# Experiments:
# CT26 tumor cells = experiment: Anti-tumor vaccination: treated dying CT26 cells injected s.c., challenge with live tumor cells in opposite flank; format: in vivo, BALB/c mice
# ERP57 [1] = experiment: Fluorescence detection of cell surface ERP57 (cytofluorometry); format: cell-based, mouse; conditions: for time after treatment at which ERP57 exposure is detectable: intact cells; for ERP57 exposure at cell surface: CT26 cells, agent alone; for ERP57 exposure of cells treated with etoposide plus inhibitor: in combination with etoposide
# Procedure: CT26 cells (on a glass slide or in 12-well plates) were first washed with FACS buffer (1×PBS, 5% fetus bovine serum, and 0.1% sodium azide) and then incubated with rabbit anti-mouse CRT antibody (1:100, Stressgen), or rabbit anti-mouse ERP57 antibody (abcam) in FACS buffer at 4° C. for 30 min. Cells reacted with anti-rabbit IgG (H+L) Alexa fluor 488-conjugates (1:500) in FACS buffer at 4° C. for 30 min. After washing three times with FACS buffer, surface CRT and ERP57 was detected by cytofluorometric analysis on a FACS Vantage. In some experiments, cells were fixed with 4% paraformaldehyde, counterstained with Hoechst (2 μM; Sigma), followed by fluorescence microscopic assessment.
# CRT = experiment: Fluorescence detection of cell surface CRT (cytofluorometry); conditions: for time after treatment at which CRT exposure is detectable: intact cells; for CRT exposure at cell surface: CT26 cells, agent alone; for CRT exposure of cells treated with etoposide plus inhibitor: in combination with etoposide
# Procedure: CT26 cells (on a glass slide or in 12-well plates) were first washed with FACS buffer (1×PBS, 5% fetus bovine serum, and 0.1% sodium azide) and then incubated with rabbit anti-mouse CRT antibody (1:100, Stressgen), or rabbit anti-mouse ERP57 antibody (abcam) in FACS buffer at 4° C. for 30 min. […] After washing three times with FACS buffer, surface CRT and ERP57 was detected by cytofluorometric analysis on a FACS Vantage. In some experiments, cells were fixed with 4% paraformaldehyde, counterstained with Hoechst (2 μM; Sigma), followed by fluorescence microscopic assessment.
# Trypsinized CT26 cells were enucleated as described. Briefly, cells were treated in 2 ml of complete RPMI medium containing cytochalasin B (10 μg/ml; Sigma) and DNase I (80 U/ml; Sigma). […] Gradients containing cell suspensions were centrifugated in a prewarmed SW41 Beckman rotor at 25 000 rpm for 20 minutes at 30° C. […] Then the cell surface CRT was detected (see materials and methods) and the viability was determined by with propidium iodine staining (2 μg/ml, Sigma) for 5 min followed by cytofluorometric analysis.
# CT26 tumors = experiment: Treatment of established CT26 tumors by single intratumoral injection; format: in vivo, BALB/c mice
# Procedure: All animals were maintained in specific pathogen-free conditions and all experiments followed the FELASA guidelines. 3×10^6 treated CT26 cells were inoculated s.c. in […] of PBS into BALB/c six-week-old female mice, into the lower flank, while 5×10^5 untreated control cells were inoculated into the contralateral flank. For the tumorigenicity assay, 3×10^6 treated or untreated CT26 cells were injected s.c. into nu/nu mice. To assess the specificity of the immune response against CT26, injections of either 5×10^5 or 5×10^6 of CT26 were made (for the mice immunized in a standard protocol or vaccination protocol, respectively). Tumors were evaluated weekly, using a caliper. In a series of experiments, BALB/c (wild type or nu/nu) carrying palpable CT26 tumors (implanted 14 days before for wild type or 7 days before for nu/nu mice by injection of […] tumor cells) received a single intratumoral injection of […] PBS containing the same concentration of anti-cancer agents and PP1/GADD34 inhibitors as those used in vitro, as well as rCRT ([…]). For the assessment of local immune response, 3×10^5 cells were injected in 50 μl into the footpad of mice. Five days later, mice were sacrificed and the draining lymph nodes were harvested. 1×10^5 lymph node cells were cultured for 4 days alone or with 1×10^4 CT26 cells killed by a freeze-thaw cycle in 200 μl in round-bottom 96-well plates. IFN-γ was determined by ELISA.
# ERP57 [2] = experiment: Fluorescence detection of cell surface ERP57 (cytofluorometry); format: cell-based, mouse; conditions: murine MCA205, B16F10, J558; human HeLa, A549, HCT116
# [3] = CT26 cells treated in vitro with agent alone, immunocompetent BALB/c mice
# [4] = agent alone, immunocompetent BALB/c mice, 14-day-old CT26 tumors
# [5] = agent alone, immunodeficient nu/nu mice
# [6] = pre-incubation for 1 h with the inhibitor
# [7] = immunodeficient (athymic) animals
compound,measurement,setting,value
CCCC[C@@H](C=O)NC(=O)[C@H](CC(C)C)NC(=O)[C@H](CC(C)C)NC(C)=O [ALLN] (Ac-Leu-Leu-[Nle]-aldehyde),immunogenicity of cell death (protection against tumor growth on rechallenge),CT26 tumor cells; [3],failed to induce immunogenic apoptosis
CCCCCCCCCCCCC/C=C/[C@@H](O)[C@H](CO)NC(C)=O [C2 ceramide],immunogenicity of cell death (protection against tumor growth on rechallenge),CT26 tumor cells; [3],failed to induce immunogenic apoptosis
CCCCCCCCCCCCC/C=C/[C@@H](O)[C@H](CO)NC(=O)CCCCCCCCCCCCCCC [C16-ceramide],time after treatment at which ERP57 exposure is detectable,ERP57 [1],1 h
same,time after treatment at which CRT exposure is detectable,CRT,1 h
CCOc1ccc(-c2nc3ccc(-c4nc5ccc(N6CCN(C)CC6)cc5[nH]4)cc3[nH]2)cc1 [Hoechst 33342],immunogenicity of cell death (protection against tumor growth on rechallenge),CT26 tumor cells; [3],failed to induce immunogenic apoptosis
CC(C)C[C@@H](C=O)NC(=O)[C@H](CC(C)C)NC(=O)[C@H](CC(C)C)NC(=O)OCc1ccccc1 [MG132] (Cbz-Leu-Leu-Leu-aldehyde),immunogenicity of cell death (protection against tumor growth on rechallenge),CT26 tumor cells; [3],failed to induce immunogenic apoptosis
COC(=O)C[C@H](NC(=O)[C@H](C)NC(=O)[C@@H](NC(=O)OCc1ccccc1)C(C)C)C(=O)CF [Z-VAD-fmk] (Cbz-Val-Ala-Asp(OMe)-CH2F),effect on immunogenicity of doxorubicin-elicited cell death,CT26 tumor cells; combined with doxorubicin,reduces the immunogenicity of doxorubicin-elicited cell death
C[C@H]1CCC/C=C/[C@@H]2C[C@H](O)C[C@H]2[C@H](O)/C=C/C(=O)O1 [brefeldin],immunogenicity of cell death (protection against tumor growth on rechallenge),CT26 tumor cells; [3],failed to induce immunogenic apoptosis
CC[C@@]1(O)C(=O)OCc2c1cc1n(c2=O)Cc2cc3ccccc3nc2-1 [camptothecin],immunogenicity of cell death (protection against tumor growth on rechallenge),CT26 tumor cells; [3],failed to induce immunogenic apoptosis
COc1cc([C@@H]2c3cc4c(cc3[C@@H](O[C@@H]3O[C@@H]5CO[C@@H](C)O[C@H]5[C@H](O)[C@H]3O)[C@H]3COC(=O)[C@H]23)OCO4)cc(OC)c1O [etoposide],immunogenicity of cell death (protection against tumor growth on rechallenge),CT26 tumor cells; [3],failed to induce immunogenic apoptosis; also recorded: poorly immunogenic
same,therapeutic effect of single intratumoral injection,CT26 tumors; [4],no major therapeutic effect
same,therapeutic effect of single intratumoral injection,CT26 tumors; [5],no major therapeutic effect
CC(=O)[C@]1(O)Cc2c(O)c3c(c(O)c2[C@@H](O[C@H]2C[C@H](N)[C@H](O)[C@H](C)O2)C1)C(=O)c1ccccc1C3=O [idarubicin],immunogenicity of cell death (protection against tumor growth on rechallenge),CT26 tumor cells; [3],elicited immunogenic cell death
same,time after treatment at which CRT exposure is detectable,CRT,1 h
C/C1=C/C(=O)O[C@@H]2C[C@@H](CC[C@H](C)/C=C\C=C\CC1)O[C@@](O)([C@@H]1CSC(=O)N1)C2 [latrunculin A],effect on ERP57 exposure induced by anthracyclines and PP1/GADD34 inhibitors,ERP57 [1]; [6],abolished
same,effect on CRT exposure induced by anthracyclines and PP1/GADD34 inhibitors,CRT; [6],abolished
CC(=O)N[C@@H](CSC(=O)[C@]1([C@@H](O)C(C)C)NC(=O)[C@H](C)[C@@H]1O)C(=O)O [loctacystin],immunogenicity of cell death (protection against tumor growth on rechallenge),CT26 tumor cells; [3],failed to induce immunogenic apoptosis
CO[C@@]12[C@H](COC(N)=O)C3=C(C(=O)C(C)=C(N)C3=O)N1C[C@@H]1N[C@@H]12 [mitomycin C],immunogenicity of cell death (protection against tumor growth on rechallenge),CT26 tumor cells; [3],failed to induce immunogenic apoptosis
same,therapeutic effect of single intratumoral injection,"CT26 tumors; mouse, in vivo",no major therapeutic effect
O=C1[O][Pt]2([NH][C@@H]3CCCC[C@H]3[NH]2)[O]C1=O [oxaliplatin],time after treatment at which ERP57 exposure is detectable,ERP57 [1],1 h
same,time after treatment at which CRT exposure is detectable,CRT,1 h
CC(=O)O[C@H]1C(=O)[C@@]2(C)[C@H]([C@H](OC(=O)c3ccccc3)[C@]3(O)C[C@H](OC(=O)[C@H](O)[C@@H](NC(=O)c4ccccc4)c4ccccc4)C(C)=C1C3(C)C)[C@]1(OC(C)=O)CO[C@@H]1C[C@@H]2O [paclitaxel],time after treatment at which ERP57 exposure is detectable,ERP57 [1],1 h
same,time after treatment at which CRT exposure is detectable,CRT,1 h
O=C(/C=C/c1ccccc1)NC(NC(=S)Nc1cccc2cccnc12)C(Cl)(Cl)Cl (centres unmarked) [salubrinal],immunogenicity of cell death (protection against tumor growth on rechallenge),CT26 tumor cells; [3],not sufficient to induce immunogenic cell death
same,immunogenic potential of cells succumbing to etoposide or mitomycin C,CT26 tumor cells; inhibitor combined with etoposide or mitomycin C,greatly enhanced
same,ERP57 exposure at cell surface,ERP57 [1],efficiently induced
same,ERP57 exposure of cells treated with etoposide plus inhibitor,ERP57 [1],greatly enhanced
same,therapeutic effect of single intratumoral injection,CT26 tumors; [4],no major therapeutic effect
same,therapeutic effect of single intratumoral injection,CT26 tumors; [5],no major therapeutic effect
same,therapeutic effect of intratumoral injection combined with etoposide or mitomycin C,CT26 tumors; immunocompetent animals,stable disease or complete tumor regression
same,therapeutic effect of intratumoral injection combined with etoposide or mitomycin C,CT26 tumors; [7],not in athymic
same,ERP57 exposure on panel of tumor cell lines,ERP57 [2],induced
same,CRT exposure at cell surface,CRT,efficiently induced
same,CRT exposure of cells treated with etoposide plus inhibitor,CRT,greatly enhanced
same,CRT exposure on panel of tumor cell lines,"CRT; murine MCA205, B16F10, J558, human HeLa, A549, HCT116",induced
CO[C@H]([C@H](O)CC(=O)[C@@H](C)[C@@H](O)CC[C@@H](C)[C@@H]1O[C@]2(CC[C@@H](C)[C@H](CC[C@H](C)C(C)=O)O2)CC[C@@H]1C)[C@H](OC(=O)C[C@@H](O)C1=C(C)C(=O)OC1=O)C(C)C [tautomycin],immunogenicity of cell death (protection against tumor growth on rechallenge),CT26 tumor cells; [3],not sufficient to induce immunogenic cell death
same,immunogenic potential of cells succumbing to etoposide or mitomycin C,"CT26 tumor cells; mouse, in vivo",greatly enhanced
same,ERP57 exposure at cell surface,ERP57 [1],efficiently induced
same,ERP57 exposure of cells treated with etoposide plus inhibitor,ERP57 [1],greatly enhanced
same,therapeutic effect of single intratumoral injection,CT26 tumors; [4],no major therapeutic effect
same,therapeutic effect of single intratumoral injection,CT26 tumors; [5],no major therapeutic effect
same,therapeutic effect of intratumoral injection combined with etoposide or mitomycin C,CT26 tumors; immunocompetent animals,stable disease or complete tumor regression
same,therapeutic effect of intratumoral injection combined with etoposide or mitomycin C,CT26 tumors; [7],not in athymic
same,CRT exposure at cell surface,CRT,efficiently induced
same,CRT exposure of cells treated with etoposide plus inhibitor,CRT,greatly enhanced
"CC(=O)O[C@@]12CO[C@@H]1C[C@H](O)[C@@]1(C)C(=O)[C@H](O)C3=C(C)[C@@H](OC(=O)[C@H](O)[C@@H](NC(=O)OC(C)(C)C)c4ccccc4)C[C@@](O)([C@@H](OC(=O)c4ccccc4)[C@H]21)C3(C)C [taxotere, Docetaxel]",time after treatment at which ERP57 exposure is detectable,ERP57 [1],1 h
same,time after treatment at which CRT exposure is detectable,CRT,1 h
C/C=C(/C)C(=O)O[C@H]1C(C)=C2[C@H]([C@@H]1OC(=O)CCCCCCC)[C@@](C)(OC(C)=O)C[C@H](OC(=O)CCC)[C@@]1(O)[C@H]2OC(=O)[C@@]1(C)O [thapsigargin],immunogenicity of cell death (protection against tumor growth on rechallenge),CT26 tumor cells; [3],failed to induce immunogenic apoptosis
arsenite,immunogenicity of cell death (protection against tumor growth on rechallenge),"CT26 tumor cells; mouse, in vivo",failed to induce immunogenic apoptosis
tunicamycin,immunogenicity of cell death (protection against tumor growth on rechallenge),CT26 tumor cells; [3],failed to induce immunogenic apoptosis
